From patent US10947196B2, “Beta adrenergic agonist and methods of using the same” (CURASEN THERAPEUTICS, INC., priority 2019, dated 2021)
pEC50: −log10 of the molar value.

These compounds were tested against β2 adrenergic receptor (Homo sapiens (Human), UniProt P07550) (assay: cAMP Gs dynamic HTRF assay, β2 expressing CHO cells). Conditions: Average pEC50 [Receptor subtype: B2-AR; Cell type: CHO-K1 (HitHunter)], B2-AR; CHO-K1 (HitHunter).
Type: cell-based
In short: (§1)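 Intracellular cAMP quantified by Eu-donor/d2-acceptor HTRF after 30 min compound exposure at 37° C in stimulation buffer with IBMX. Concentrations ran 10 μM top, 5-fold steps, 10 points. Cell lines: 1321N1 astrocytoma and CHO expressing β1 or β2; EC50 via four-parameter fit, relative efficacy against isoproterenol.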

β2 adrenergic receptor, sequence (P07550 whole entry, species assumed): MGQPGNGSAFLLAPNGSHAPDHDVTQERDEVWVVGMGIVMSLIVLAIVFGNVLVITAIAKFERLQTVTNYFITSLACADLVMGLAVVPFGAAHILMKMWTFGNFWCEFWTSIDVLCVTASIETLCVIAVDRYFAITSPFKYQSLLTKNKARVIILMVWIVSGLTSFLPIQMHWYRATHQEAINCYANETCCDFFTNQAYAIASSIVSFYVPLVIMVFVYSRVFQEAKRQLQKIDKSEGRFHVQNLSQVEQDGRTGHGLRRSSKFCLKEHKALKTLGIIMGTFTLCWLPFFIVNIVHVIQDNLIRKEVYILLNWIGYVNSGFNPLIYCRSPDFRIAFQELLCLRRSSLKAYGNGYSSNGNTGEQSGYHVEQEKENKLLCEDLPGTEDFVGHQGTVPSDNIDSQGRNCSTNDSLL

SMILES	pEC50
COc1ccc(C[C@@H](C)NC[C@H](O)c2ccc(OC)nc2C)cc1 [Compound 03-253]	7.00 to 8.00

Same assay, conditions: B2-AR; CHO-K1 (HitHunter); read-out: Average pEC50 [Receptor subtype: B2-AR; Cell type: CHO-K1 (HitHunter)] (converted)

SMILES	EC50
Cc1ccc([C@@H](O)CNC(C)(C)C)nc1C#N [Compound 03-8]	100 to 1000 nM
Cc1ccc([C@H](O)CNC(C)(C)C)nc1C#N [Compound 03-9]	< 10 nM
CC(C)NC[C@H](O)c1cccc(C2CC2)n1 [Compound 03-10]	< 10 nM
CC1(NC[C@H](O)c2cccc(C(F)(F)F)n2)CCC1 [Compound 03-11]	< 10 nM
CC(C)(C)NC[C@H](O)c1cccc(NC2CCC2)n1 [Compound 03-190]	< 10 nM
CC(C)(C)NC[C@H](O)c1cccc(NC2CCCC2)n1 [Compound 03-191]	< 10 nM
CC(C)Nc1cccc([C@@H](O)CNC(C)(C)C)n1 [Compound 03-192]	< 10 nM
CC(C)(C)NC[C@H](O)c1cccc(Nc2ccccc2)n1 [Compound 03-193]	< 10 nM
CC(C)(C)NC[C@H](O)c1cccc(Oc2ccccc2)n1 [Compound 03-195]	10 to 100 nM
CC(C)(C)NC[C@H](O)c1cccc(C2=CCCC2)n1 [Compound 03-197]	< 10 nM

Same assay, conditions: B2-AR; CHO-K cells; read-out: Average EC50 [Receptor subtype: B2-AR; Cell type: CHO-K]

SMILES	pEC50
Cc1ccc([C@@H](O)CNC(C)(C)C)nc1C#N [Compound 03-8]	6.00 to 7.00
Cc1ccc([C@H](O)CNC(C)(C)C)nc1C#N [Compound 03-9]	> 8.00
CC(C)NC[C@H](O)c1cccc(C2CC2)n1 [Compound 03-10]	> 8.00
CC1(NC[C@H](O)c2cccc(C(F)(F)F)n2)CCC1 [Compound 03-11]	> 8.00

These compounds were tested against β2 adrenergic receptors in human astrocytoma cells (1321N1) (Homo sapiens (Human), UniProt P07550) (assay: cAMP HTRF assay in human astrocytoma cells (1321N1)). Conditions: not given.
Type: cell-based
Description: cAMP homogeneous time-resolved fluorescence (HTRF). Compound efficacy was determined using the cAMP Gs dynamic HTRF assay (Cisbio, catalog #62AM4PEC) largely following the manufacturer's instructions, also detailed below.
Compound preparation. […] Standard serial dilution curves were 10-point, 5-fold dilutions starting from a highest concentration of 10 μM. […] Assay plates were centrifuged at 500×g for 10 seconds. Compounds and IBMX were prepared at 2× final dose to compensate for addition of cells.
Cell preparation. 1× stimulation buffer, washing PBS (Dulbecco's phosphate-buffered saline, −Mg −Ca; Caisson Labs, catalog #PBL01), assay PBS (Dulbecco's phosphate-buffered saline, +Mg, +Ca; Caisson Labs, catalog #PBL02) and Versene (0.02% EDTA disodium salt solution in PBS without calcium or magnesium; Caisson Labs, catalog #EDL01) were pre-warmed to 37° C. Cells expressing beta-adrenergic receptor were washed in washing PBS to remove growth medium and then released from the surface by incubating with Versene for 5-10 minutes at 37° C. Cells were harvested using assay PBS, counted manually by hemocytometer or by an automated cell counter, pelleted by centrifugation (200×g, 5 minutes) and resuspended in 37° C. 1× stimulation buffer to a final density of 1.5×10^6 cells/mL. 5 μL of the suspended cell solution (7500 cell total) were added to all wells of the 384 well assay plate, the assay plate was covered with an Axygen® plate seal (Corning PCR-SP) and incubated in a humidified 37° C. environment supplemented with 5% CO2 for 30 minutes.
HTRF reagent addition, reading and data analysis. After 30 minutes of cell stimulation with test compound, the assay plates were centrifuged at 500×g for 10 seconds, and incubation was stopped with the addition of 5 μL cAMP-D2 acceptor, diluted 1:21 in detection and lysis buffer 2 (Cisbio 62CL2FDF) was added to all cells. Subsequently, 5 μL Anti-cAMP-Eu Donor, diluted 1:21 in detection and lysis buffer 2, was added to cells. Plates were sealed and reactions gently ‘vortexed’ at 900 rpm on a Heidolph Titramax 1000 for at least 30 minutes at room temperature. Plates were centrifuged again at 500×g for 10 seconds, and HTRF was measured using a Tecan Spark plate reader at 50 flashes per well. […] Potency estimates (EC50) were derived from the four-parameter nonlinear regression of the concentration-effect curve and an estimate of relative efficacy was determined by comparing the magnitude of the test compound HTRF signal window (min−max dose) with the signal window of the full agonist control, isoproterenol.

β2 adrenergic receptors in human astrocytoma cells (1321N1), sequence (P07550 whole entry): as the sequence (P07550 whole entry, species assumed) above

SMILES	pEC50
COc1ccc(C[C@@H](C)NC[C@H](O)c2ccc(OC)nc2C)cc1 [Compound 03-253]	6.00 to 7.00

Same assay, conditions: Endogenous receptor; 1321N1 cells

SMILES	Average pEC50 [Receptor subtype: Endogenous; Cell type: 1321N1]
CC(C)NC[C@H](O)c1cccc(C2CC2)n1 [Compound 03-10]	B (B = 8-7)

Same assay, conditions: Endogenous receptor; 1321N1 cells; read-out: Average EC50 [Receptor subtype: Endogenous; Cell type: 1321N1]

SMILES	pEC50
CC(C)NC[C@H](O)c1cccc(C2CC2)n1 [Compound 03-10]	7.00 to 8.00

Same assay, conditions: Endogenous receptor; 1321N1 cells; read-out: Average pEC50 [Receptor subtype: Endogenous; Cell type: 1321N1] (converted)

SMILES	EC50
Cc1ccc([C@@H](O)CNC(C)(C)C)nc1C#N [Compound 03-8]	> 1000 nM
Cc1ccc([C@H](O)CNC(C)(C)C)nc1C#N [Compound 03-9]	10 to 100 nM
CC1(NC[C@H](O)c2cccc(C(F)(F)F)n2)CCC1 [Compound 03-11]	100 to 1000 nM
CC(C)(C)NC[C@H](O)c1cccc(NC2CCC2)n1 [Compound 03-190]	< 10 nM
CC(C)(C)NC[C@H](O)c1cccc(NC2CCCC2)n1 [Compound 03-191]	< 10 nM
CC(C)Nc1cccc([C@@H](O)CNC(C)(C)C)n1 [Compound 03-192]	10 to 100 nM
CC(C)(C)NC[C@H](O)c1cccc(Nc2ccccc2)n1 [Compound 03-193]	< 10 nM
CC(C)(C)NC[C@H](O)c1cccc(Oc2ccccc2)n1 [Compound 03-195]	10 to 100 nM
CC(C)(C)NC[C@H](O)c1cccc(C2=CCCC2)n1 [Compound 03-197]	< 10 nM

Each compound was assayed against β1-adrenergic receptor (Homo sapiens (Human), UniProt P08588) (assay: cAMP Gs dynamic HTRF assay, β1 expressing CHO cells). Conditions: Average pEC50 [Receptor subtype: B1-AR; Cell type: CHO-K1 (HitHunter)], B1-AR; CHO-K1 (HitHunter).
Type: cell-based
In short: as §1

β1-adrenergic receptor, sequence (P08588 whole entry, species assumed): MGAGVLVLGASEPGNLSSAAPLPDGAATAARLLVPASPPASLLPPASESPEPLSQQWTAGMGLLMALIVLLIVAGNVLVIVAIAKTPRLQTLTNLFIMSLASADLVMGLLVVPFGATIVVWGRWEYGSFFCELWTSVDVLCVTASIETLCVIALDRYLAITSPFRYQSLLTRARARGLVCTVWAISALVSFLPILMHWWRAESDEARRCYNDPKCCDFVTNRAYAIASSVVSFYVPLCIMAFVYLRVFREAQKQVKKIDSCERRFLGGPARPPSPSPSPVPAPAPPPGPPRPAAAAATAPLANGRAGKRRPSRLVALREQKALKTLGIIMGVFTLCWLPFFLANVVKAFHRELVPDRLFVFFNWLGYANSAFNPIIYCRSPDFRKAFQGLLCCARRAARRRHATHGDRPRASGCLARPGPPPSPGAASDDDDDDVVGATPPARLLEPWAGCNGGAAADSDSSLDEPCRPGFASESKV

SMILES	pEC50
COc1ccc(C[C@@H](C)NC[C@H](O)c2ccc(OC)nc2C)cc1 [Compound 03-253]	< 6.00

Same assay, conditions: B1-AR; CHO-K1 (HitHunter); read-out: Average pEC50 [Receptor subtype: B1-AR; Cell type: CHO-K1 (HitHunter)] (converted)

SMILES	EC50
Cc1ccc([C@@H](O)CNC(C)(C)C)nc1C#N [Compound 03-8]	> 1000 nM
Cc1ccc([C@H](O)CNC(C)(C)C)nc1C#N [Compound 03-9]	10 to 100 nM
CC(C)NC[C@H](O)c1cccc(C2CC2)n1 [Compound 03-10]	10 to 100 nM
CC1(NC[C@H](O)c2cccc(C(F)(F)F)n2)CCC1 [Compound 03-11]	10 to 100 nM
CC(C)(C)NC[C@H](O)c1cccc(NC2CCC2)n1 [Compound 03-190]	10 to 100 nM
CC(C)(C)NC[C@H](O)c1cccc(NC2CCCC2)n1 [Compound 03-191]	10 to 100 nM
CC(C)Nc1cccc([C@@H](O)CNC(C)(C)C)n1 [Compound 03-192]	10 to 100 nM
CC(C)(C)NC[C@H](O)c1cccc(Nc2ccccc2)n1 [Compound 03-193]	< 10 nM
CC(C)(C)NC[C@H](O)c1cccc(Oc2ccccc2)n1 [Compound 03-195]	100 to 1000 nM
CC(C)(C)NC[C@H](O)c1cccc(C2=CCCC2)n1 [Compound 03-197]	10 to 100 nM

Same assay, conditions: B1-AR; CHO-K cells; read-out: Average EC50 [Receptor subtype: B1-AR; Cell type: CHO-K]

SMILES	pEC50
Cc1ccc([C@@H](O)CNC(C)(C)C)nc1C#N [Compound 03-8]	< 6.00
Cc1ccc([C@H](O)CNC(C)(C)C)nc1C#N [Compound 03-9]	7.00 to 8.00
CC(C)NC[C@H](O)c1cccc(C2CC2)n1 [Compound 03-10]	7.00 to 8.00
CC1(NC[C@H](O)c2cccc(C(F)(F)F)n2)CCC1 [Compound 03-11]	7.00 to 8.00

These compounds were tested against B3-AR (Homo sapiens (Human), UniProt P13945) (assay: cAMP potency assay, B3-AR expressing CHO-K1 cells). Conditions: not given.
Type: cell-based

B3-AR, sequence (P13945 whole entry, species assumed): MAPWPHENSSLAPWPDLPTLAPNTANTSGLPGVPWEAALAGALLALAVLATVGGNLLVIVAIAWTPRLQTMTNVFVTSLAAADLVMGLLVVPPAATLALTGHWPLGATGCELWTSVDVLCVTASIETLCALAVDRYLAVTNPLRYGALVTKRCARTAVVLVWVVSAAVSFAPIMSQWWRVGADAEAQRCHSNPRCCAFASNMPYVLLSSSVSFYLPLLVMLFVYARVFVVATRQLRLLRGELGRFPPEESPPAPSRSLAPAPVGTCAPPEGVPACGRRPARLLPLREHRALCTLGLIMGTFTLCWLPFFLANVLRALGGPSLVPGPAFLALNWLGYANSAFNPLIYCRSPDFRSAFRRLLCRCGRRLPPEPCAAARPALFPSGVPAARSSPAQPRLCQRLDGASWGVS

SMILES	Average pEC50 [Receptor subtype: B3-AR; Cell type: CHO-K1]
CC(C)NC[C@H](O)c1cccc(C2CC2)n1 [Compound 03-10]	D (D < 6)

Same assay, conditions: read-out: Average EC50 [Receptor subtype: B3-AR, Cell type: CHO-K1]

SMILES	pEC50
CC(C)NC[C@H](O)c1cccc(C2CC2)n1 [Compound 03-10]	< 6.00

Same assay, conditions: read-out: Average pEC50 [Receptor subtype: B3-AR, Cell type: CHO-K1] (converted)

SMILES	EC50
Cc1ccc([C@@H](O)CNC(C)(C)C)nc1C#N [Compound 03-8]	> 1000 nM
Cc1ccc([C@H](O)CNC(C)(C)C)nc1C#N [Compound 03-9]	100 to 1000 nM
CC1(NC[C@H](O)c2cccc(C(F)(F)F)n2)CCC1 [Compound 03-11]	> 1000 nM
